# Results published in patent US20010023259A1, “Conjugated fatty acids and related compounds” (Natural ASA, priority 1999, published 2001).
# System: Spirulina platensis (Arthrospira sp.) PCC8005
# Assay: Incubation of fatty acid substrates with S. platensis; fatty acid composition of extracted lipids by GC
# Type: cell-based
# Details: for 6,9,11 - 18:3 (desaturated metabolite), fatty acid composition of lipids extracted from S. platensis / 9,11 - 18:2 (substrate taken up), fatty acid composition of lipids extracted from S. platensis / Amount, total weight of lipid in extract / linoleic acid 18:2, fatty acid composition of lipids extracted from S. platensis / linolenic acid 18:3 (n-6), fatty acid composition of lipids extracted from S. platensis / oleic acid 18:1, fatty acid composition of lipids extracted from S. platensis / palmitic acid 16:0, fatty acid composition of lipids extracted from S. platensis / palmitoleic acid 16:1, fatty acid composition of lipids extracted from S. platensis / stearic acid 18:0, fatty acid composition of lipids extracted from S. platensis: incubation with added 9-cis,11-trans-octadecadienoic acid
# Protocol: Spirulina platensis (Arthrospira sp.) PCC8005 was grown in Zabrouk's medium in 50 ml batch culture in 100 ml erlenmeyer flasks at 30° C. with illumination of 50 μmol photons m^-2 […]. Cultures were harvested following 5 days growth by centrifugation at 40,000 g in a […] rotor in a Beckman Avanti centrifuge 20 minutes, cooled rotor @4° C. The algal pellet was carefully resuspended in fresh Zabrouk's medium under aseptic conditions. Initial time-course experiments were carried out by resuspending the algal pellet in 50 ml fresh medium, which was then divided into 10 ml aliquots, each containing 0.5 ml of 1.8mM ammonium fatty acid substrate and incubating under the above conditions. Control cultures incubated without linoleate were also set up. […] The algal pellet was washed four times in 50 ml freshly drawn MilliQ water and then freeze dried prior to analyses. In later experiments where bulk material was required for a more detailed analysis of the metabolite produced, 4×50 ml cultures were grown and harvested as above. […] Following this incubation the algal material was pelleted, washed and freeze dried as described above. […] The latter were converted to the picolinyl ester derivatives by the procedure of Balazy and Nies, Biomed. Environ. […] The temperature of both the injector and detector was 250° C. Hydrogen was the carrier gas. The analyses were performed with a column (fused silica capillary) coated with carbowax (Chrompack UK Ltd, London, 30 m×[…] i.d.). The oven temperature was programmed from 170 to 220° C. at 4° C./min.
smiles,measurement,setting,value
"CCCCCC/C=C/C=C\CCCCCCCC(=O)O [CLA, 9-cis,11-trans-octadecadienoic acid]",recovered CLA isomer converted to the desaturated metabolite,after 24 hours,13%
same,"compound taken up from the surrounding medium, share of lipid",at 24 hrs,27.8 % of lipid
same,"time at which plateau level of the 6,9,11 tri-unsaturated fatty acid is attained",conversion of the di-unsaturated compound,about 72 hours
same,change of relative proportion of oleate with time,"extracts incubated with the CLA isomer, 0-96 h",increased four fold
same,"6,9,11 - 18:3 (desaturated metabolite), fatty acid composition of lipids extracted from S. platensis",0h,0.0 wt %
same,"9,11 - 18:2 (substrate taken up), fatty acid composition of lipids extracted from S. platensis",0h,0.0 wt %
same,"Amount, total weight of lipid in extract",0h,85.3 µg
same,"linoleic acid 18:2, fatty acid composition of lipids extracted from S. platensis",0h,11.7 wt %
same,"linolenic acid 18:3 (n-6), fatty acid composition of lipids extracted from S. platensis",0h,32.2 wt %
same,"oleic acid 18:1, fatty acid composition of lipids extracted from S. platensis",0h,4.9 wt %
same,"palmitic acid 16:0, fatty acid composition of lipids extracted from S. platensis",0h,42.0 wt %
same,"palmitoleic acid 16:1, fatty acid composition of lipids extracted from S. platensis",0h,6.5 wt %
same,"stearic acid 18:0, fatty acid composition of lipids extracted from S. platensis",0h,2.6 wt %
same,"6,9,11 - 18:3 (desaturated metabolite), fatty acid composition of lipids extracted from S. platensis",24h,4.1 wt %
same,"9,11 - 18:2 (substrate taken up), fatty acid composition of lipids extracted from S. platensis",24h,27.8 wt %
same,"Amount, total weight of lipid in extract",24h,170.3 µg
same,"linoleic acid 18:2, fatty acid composition of lipids extracted from S. platensis",24h,8.2 wt %
same,"linolenic acid 18:3 (n-6), fatty acid composition of lipids extracted from S. platensis",24h,19.5 wt %
same,"oleic acid 18:1, fatty acid composition of lipids extracted from S. platensis",24h,4.0 wt %
same,"palmitic acid 16:0, fatty acid composition of lipids extracted from S. platensis",24h,30.7 wt %
same,"palmitoleic acid 16:1, fatty acid composition of lipids extracted from S. platensis",24h,4.7 wt %
same,"stearic acid 18:0, fatty acid composition of lipids extracted from S. platensis",24h,0.9 wt %
same,"6,9,11 - 18:3 (desaturated metabolite), fatty acid composition of lipids extracted from S. platensis",48h,5.1 wt %
same,"9,11 - 18:2 (substrate taken up), fatty acid composition of lipids extracted from S. platensis",48h,21.2 wt %
same,"Amount, total weight of lipid in extract",48h,188.3 µg
same,"linoleic acid 18:2, fatty acid composition of lipids extracted from S. platensis",48h,6.9 wt %
same,"linolenic acid 18:3 (n-6), fatty acid composition of lipids extracted from S. platensis",48h,19.0 wt %
same,"oleic acid 18:1, fatty acid composition of lipids extracted from S. platensis",48h,8.6 wt %
same,"palmitic acid 16:0, fatty acid composition of lipids extracted from S. platensis",48h,32.7 wt %
same,"palmitoleic acid 16:1, fatty acid composition of lipids extracted from S. platensis",48h,5.3 wt %
same,"stearic acid 18:0, fatty acid composition of lipids extracted from S. platensis",48h,1.2 wt %
same,"6,9,11 - 18:3 (desaturated metabolite), fatty acid composition of lipids extracted from S. platensis",72h,5.7 wt %
same,"9,11 - 18:2 (substrate taken up), fatty acid composition of lipids extracted from S. platensis",72h,16.2 wt %
same,"Amount, total weight of lipid in extract",72h,211.8 µg
same,"linoleic acid 18:2, fatty acid composition of lipids extracted from S. platensis",72h,4.9 wt %
same,"linolenic acid 18:3 (n-6), fatty acid composition of lipids extracted from S. platensis",72h,16.5 wt %
same,"oleic acid 18:1, fatty acid composition of lipids extracted from S. platensis",72h,15.4 wt %
same,"palmitic acid 16:0, fatty acid composition of lipids extracted from S. platensis",72h,34.3 wt %
same,"palmitoleic acid 16:1, fatty acid composition of lipids extracted from S. platensis",72h,5.4 wt %
same,"stearic acid 18:0, fatty acid composition of lipids extracted from S. platensis",72h,1.7 wt %
same,"6,9,11 - 18:3 (desaturated metabolite), fatty acid composition of lipids extracted from S. platensis",96h,5.8 wt %
same,"9,11 - 18:2 (substrate taken up), fatty acid composition of lipids extracted from S. platensis",96h,10.5 wt %
same,"Amount, total weight of lipid in extract",96h,166.2 µg
same,"linoleic acid 18:2, fatty acid composition of lipids extracted from S. platensis",96h,3.9 wt %
same,"linolenic acid 18:3 (n-6), fatty acid composition of lipids extracted from S. platensis",96h,15.1 wt %
same,"oleic acid 18:1, fatty acid composition of lipids extracted from S. platensis",96h,21.6 wt %
same,"palmitic acid 16:0, fatty acid composition of lipids extracted from S. platensis",96h,35.4 wt %
same,"palmitoleic acid 16:1, fatty acid composition of lipids extracted from S. platensis",96h,5.7 wt %
same,"stearic acid 18:0, fatty acid composition of lipids extracted from S. platensis",96h,1.9 wt %
same,incorporation into the lipids of S. platensis,substrate added exogenously,rapidly take up the compound
"CCCCC/C=C\C=C\CCCCCCCCC(=O)O [10-t,12-c-octadecadienoic acid]","metabolite formed, share of the conjugated acids",96 hours incubation,18 % of the conjugated acids
same,"metabolite formed, share of the total fatty acids","96 hours incubation, GC retention time expected for 6-c,10-t,12-c-octadecatrienoic acid",6.4 % of the total fatty acids
same,incorporation into the lipids of S. platensis,substrate added exogenously,rapidly incorporated
"CCCCCC#CCC=CCCCCCCCC(=O)O [Crepenynic acid, octadeca-9-en-12-ynoic acid]",C20 homologue formed by chain elongation in the total fatty acids,96 hours incubation,detected
same,desaturation in position 6 by S. platensis,substrate added exogenously,converted to a dehydro-metabolite
same,incorporation into the lipids of S. platensis,substrate added exogenously,taken up
